Measured values reported in a melting point compilation (Tetko et al.; mined from patent text by program, amines drawn as free bases though some values may be those of a salt).

`C[C@H]1N(C(=O)c2ccc(OCC(F)(F)C(F)F)cc2)CC(=O)O[C@@]1(Cn1cncn1)c1ccc(F)cc1F` (relative stereo) gave a melting point of 78 to 83 °C. `Cc1cn(Cc2ccccc2)c(=O)[nH]c1=O` showed a melting point of 170 to 173 °C. Compound `Cc1c(-c2ccc(NC(=O)OC(C)(C)C)cc2)nc2n1CCc1ccccc1C2OC1CCN(C)CC1` (centres undefined) has a melting point of 194 °C. Compound `N#Cc1ccc2ccc(Br)cc2c1` has a melting point of 126 to 128 °C. In the case of `CCCCCCCCCCCCCCCCSCC(CNS(=O)(=O)CCCI)NC(=O)OC` (centres undefined), the melting point is reported as 79 to 81 °C. With `CCCCCCS(=O)(=O)c1nn2c(=O)cc(C#N)nc2s1` the melting point was 144 to 146 °C. `O=C(Nc1ccc(Cl)c(Cl)c1)c1ccccc1SSc1ccccc1C(=O)Nc1ccc(Cl)c(Cl)c1` gave a melting point of 230 to 233 °C. With `COC(=O)c1c(C)ccc(C(O)=S)c1C` the melting point was 178 °C. In the case of `O=C(/C=C/c1c(Cl)cccc1Cl)/C=C/c1c(Cl)cccc1Cl`, the melting point is reported as 145 to 146 °C. Work on `N#Cc1ccc2c(c1)N(C1CC1)CNS2(=O)=O` yielded a melting point of 178 to 180 °C. Work on `Clc1cccc2c1Sc1ccccc1N2C1=CCCN1C1=NCCC1` yielded a melting point of 195 to 197 °C. Compound `CC(=O)Nc1cncc(NC(=NC#N)NC2(c3ccccc3)CCC2)c1` has a melting point of 207 to 208 °C. `COC(=O)c1ccc2c(c1)S(=O)(=O)c1ccccc1O2` gave a melting point of 160 °C. `C=CCOc1cc(Br)ccc1C(=O)OC` showed a melting point of 62 °C. `CS(=O)(=O)Nc1ccc(OCCCc2ccc(OCCCCOc3ccccc3)cc2)c(C(=O)O)c1` showed a melting point of 86 to 88 °C. Work on `CN1CCC(=C2c3ccccc3Sc3ccc(SC(F)(F)F)cc32)CC1` yielded a melting point of 104 to 106 °C. `N#Cc1sc2cc([N+](=O)[O-])ccc2c1Cl` showed a melting point of 204 to 205 °C. `CCOC(=O)c1cnncc1NC(=O)Cc1c(F)cc(F)cc1F` showed a melting point of 143 to 144 °C. Work on `CC(C)(C)c1ccc(OCC(O)CN2CCC3(CC2)CSC2=C(O3)c3cc(F)ccc3C(=O)C2=O)cc1` (centres undefined) yielded a melting point of 114 to 116 °C. With `CSc1cccc(-c2ccccc2)c1S(N)(=O)=O` the melting point was 167 to 168 °C. With `COC(=O)Cc1ccc(C(=O)c2ccc(C)cc2)n1C` the melting point was 117 to 118 °C. `CC1CCc2ccc(OCC3CO3)cc2O1` (centres undefined) showed a melting point of 67 to 69 °C. Work on `CN1CCC(Nc2ccccc2C(=N)c2ccccc2)CC1` yielded a melting point of 117 to 118 °C. Compound `O=c1cc(N2CCOCC2)oc2c(O)cccc12` has a melting point of 240 to 247 °C. `Cc1c(C(=O)Nc2ccc(N3CCC(N4CCNCC4)CC3)c(C#N)c2)cnn1-c1ccc(Cl)cc1` showed a melting point of 226 °C. With `CC(=O)N(C)c1cc(-c2ccnc3c(C(=O)c4cccs4)cnn23)ccc1Cl` the melting point was 191 to 193 °C. In the case of `CC(C)c1nccc2c(CNC(=O)C(Cl)Cl)cccc12`, the melting point is reported as 151 °C. `O=C(CN1CCN(C(CO)C(=O)O)CCN(C(CO)C(=O)O)CCN(C(CO)C(=O)O)CC1)NCCOCCO` (centres undefined) showed a melting point of 145 to 150 °C. In the case of `N#CCCSc1nnsc1-c1ccccc1`, the melting point is reported as 63.5 to 64.5 °C. Compound `COC(=O)CCCc1cc2nc(Cl)ccc2n1S(=O)(=O)c1ccc(-c2ccccn2)cc1` has a melting point of 123 to 124 °C. `CCN(CC)Cc1cc(Nc2ccnc3cc(Cl)ccc23)c2ccccc2c1O` showed a melting point of 158 to 160 °C. With `CN1CCN2CCCOC2(c2ccccc2)c2cc(Cl)ccc21` (centres undefined) the melting point was 142 to 144 °C. Compound `Cc1cc(-n2cncn2)c2cccc(OCc3c(Cl)ccc(S(=O)(=O)N4CCC[C@H]4C(=O)NCCN(C)C)c3Cl)c2n1` has a melting point of 106 °C. `CN(O)C(=O)Cc1ccc2c(c1)C(=O)c1ccccc1CO2` showed a melting point of 118 to 120 °C. `CCOC(=O)c1cc(Cl)cc2c(=O)c(C)c(-c3ccccc3)oc12` showed a melting point of 127 to 128 °C. Compound `O=Cc1scc2c1-c1cccc3cccc-2c13` has a melting point of 123 to 126 °C. For `CCOC(=O)C(OC(=O)c1ccc(O)cc1)C(F)(F)F` (centres undefined), the melting point was 83.8 °C. `CCCC1=C(C(=O)OCC)C(c2ccccc2OCC)c2c[nH]nc2N1` (centres undefined) showed a melting point of 203 °C. `Cc1noc2cc3c(cc12)C1(CO3)C(=O)N(Cc2ccccc2C(F)(F)F)c2ccccc21` (centres undefined) gave a melting point of 192 to 194 °C. Compound `CCOC(=O)C(Cc1cc2ccccc2[nH]c1=O)NC(=O)c1ccc(OC)cc1` (centres undefined) has a melting point of 206 to 208 °C. With `COc1ccc(-c2cncc(OC3SCC(OC(C)=O)C(OC(C)=O)C3OC(C)=O)c2)c(C)c1` (centres undefined) the melting point was 283 °C. `CCOC(=O)c1[nH]c2cc(Cl)cc(Cl)c2c1NCC(=O)c1ccccc1Cc1ccccc1` showed a melting point of 225 to 227 °C. Compound `CC#CC(=O)N[C@H]1CC[C@H](CCN2CCN(c3nccc4c3OCC4)CC2)CC1` has a melting point of 176 °C. For `Cc1ccc(-c2c3ccccc3nc3ccc(N(S(C)(=O)=O)S(C)(=O)=O)cc23)cc1`, the melting point was 217 to 219 °C. In the case of `COc1cc2c(cc1OC)CC(=O)N(CCC=O)C=C2`, the melting point is reported as 95 to 96 °C. `Cc1csc(C2CCN(CCCC(O)c3ccc(F)cc3)CC2)n1` (centres undefined) gave a melting point of 98 to 99 °C. In the case of `OC(C(=Cc1cccnc1)c1ccc(F)cc1)c1ccccc1Cl` (centres undefined), the melting point is reported as 82 to 83 °C. For `CN(C)CCCNC(=O)c1ccc(-c2cnc3c(c2)N(C(=O)c2ccccc2)CCN3)cc1`, the melting point was 94 °C. With `CCCC1(C)OC(=O)C(OC(C)C)=C1c1ccc(S(C)(=O)=O)cc1` (centres undefined) the melting point was 95 to 96 °C. Work on `COC(=O)CNC(=O)c1ccc(C(=O)NS(=O)(=O)c2ccc(CCNC(=O)C(C)C)cc2)cn1` yielded a melting point of 197 to 199 °C. For `Cc1c(C=CCCCCCCCCCC(=O)O)cccc1C(=O)c1ccc(Cl)cc1`, the melting point was 49 °C. For `CC(=O)Nc1ccc2c3c(oc2c1)CC(C(=O)O)CC3` (centres undefined), the melting point was 229 to 230 °C. `CCCCCCC(C(=O)O)n1cc(CC)c2cc(-c3ccccc3-c3nn[nH]n3)ccc21` (centres undefined) gave a melting point of 110 to 113 °C. `Cc1cnc(-n2cc(C(F)(F)F)cn2)nc1Oc1cccc(C(F)(F)F)c1` showed a melting point of 103 to 105 °C. Compound `O=c1oc2ccccc2n1-c1ccccc1[N+](=O)[O-]` has a melting point of 153 to 155 °C. Work on `NC(=O)c1cc(I)cc(I)c1O` yielded a melting point of 206 °C. Work on `Oc1cc2c(cc1OCCCOc1ccccc1)OCC2` yielded a melting point of 106 to 107 °C. Work on `CC(=O)SC(CC(=O)c1cccc(Cl)c1)C(=O)O` (centres undefined) yielded a melting point of 85 to 86 °C. `CCCc1ccc(CCCC(P(=O)(O)O)P(=O)(O)O)cc1` gave a melting point of 200 to 202 °C. In the case of `COc1ccc(S(=O)(=O)Nc2cccc3c2Nc2ccccc2S3)cc1`, the melting point is reported as 158 to 160 °C. `Cc1sc2c(Br)c3ccccc3c(-c3cc(Br)c(O)c(Br)c3)c2c1C` showed a melting point of 172 to 174 °C. With `COCOc1ccc(-c2ncc3ccc(-c4csc(CN5CCCCC5)c4)nc3n2)cc1` the melting point was > 268 °C. `C[C@@H]1CN(c2cccc(-c3cn[nH]c3N)c2)C[C@H](C)O1` gave a melting point of 158 to 160 °C. For `Cc1cc(Cl)cc(C(=O)Nc2ccnc(Cl)c2)n1`, the melting point was 221 °C. Compound `CCOC(=O)N1CCN(c2ccc(C3=NNC(=O)CC3C)cc2[N+](=O)[O-])CC1` (centres undefined) has a melting point of 140 to 142 °C. In the case of `CC(C#Cc1ccc(C(O)c2cc3ccccc3s2)s1)N(O)C(N)=O` (centres undefined), the melting point is reported as 65 to 70 °C. For `N#Cc1cc(C=NO)ccc1-n1cncn1`, the melting point was 198 to 200 °C. `CCCCCCC1C(=O)NC2(C(O)C3C=CCCC3)C(=O)OC12C` (centres undefined) gave a melting point of 157 °C. In the case of `CC(C)(C)C1CC(CCC(=O)O)(CCC(=O)O)C(=O)C(CCC(=O)O)(CCC(=O)O)C1`, the melting point is reported as 209 to 212 °C. Work on `CCc1nc2c(cnn2CC)c(NC2CCOCC2)c1CNC(=O)c1cccc(C(=O)NCc2ccc(Cl)c(-c3cccc(CN4CCNCC4)c3)c2)c1` yielded a melting point of 127 to 130 °C. `Cc1cc(C)n(O)c(=O)c1Cc1ccccc1` gave a melting point of 148 °C. `O=C(C=Cc1cccc(Oc2ccccc2)c1)NCCCCCC(=O)NO` showed a melting point of 113 to 115 °C. `Cc1ccc(S(=O)(=O)Oc2c(Cl)cc(C3=NNC(=O)CC3)cc2Cl)cc1` gave a melting point of 208 to 209 °C. For `Cc1cc2c(cc1C1=NNC(=O)CC1)N(C)C(=O)CO2`, the melting point was 227 to 228 °C. `Cc1nnc(Cl)c(-c2c(F)cc(OCCCN(C)C)cc2F)c1-c1ccc(Cl)cc1` showed a melting point of 112 to 113 °C. In the case of `CNc1nc(-c2ccccc2)ccc1[N+](=O)[O-]`, the melting point is reported as 98 to 99 °C. `CCOC(=O)C(=Cc1cccn2cc(Br)nc12)N=[N+]=[N-]` showed a melting point of 149 to 151 °C. `COc1ccc(S(=O)(=O)N2C(=O)C(OC(=O)Oc3ccccc3)(c3ccccc3Cl)c3cc(Cl)c(OC)cc32)c(OC)c1` (centres undefined) showed a melting point of 162 to 163 °C. Compound `CNc1nc2c(c(N3CCN(C=O)CC3)n1)SCCC2` has a melting point of 149 to 151 °C. For `O=C(Oc1cccc(C(F)(F)F)c1)c1cc2cc(CCl)ccc2oc1=O`, the melting point was 162 to 163 °C. Compound `CC(C)(C)C1=NN(c2ccc(S(=O)(=O)O)cc2)C(c2ccc(F)cc2)C1` (centres undefined) has a melting point of 92.9 °C. Compound `NC(/C=C(/F)P(=O)(O)O)CCc1ccc(Sc2cccc(OCc3ccccc3)c2)cc1Cl` (centres undefined) has a melting point of 285 to 288 °C. Work on `Cc1ccc([C@@H](C)NCc2ccc(O)cc2)cc1` yielded a melting point of 114 to 116 °C. In the case of `CCC1c2cc(OC)c(OC)cc2C(c2ccc(OC)c(OC)c2)=NNC1C` (centres undefined), the melting point is reported as 120 to 122 °C. `COCCNc1cc(Cl)nc(-c2ccccc2)n1` gave a melting point of 128 to 130 °C. Work on `Cc1oc(-c2cccs2)nc1COc1ccc(CON=C(CCCCC(=O)O)c2ccccc2)cc1` yielded a melting point of 101 to 102 °C. Work on `C=C(C)COc1ccc2c(C)cc(=O)oc2c1C(=O)C=Cc1cccnc1` yielded a melting point of 110 to 112 °C. Compound `CC1CC2C3CC(F)C4=CC(=O)C=CC4(C)C34OC4CC2(C)C1(O)C(=O)CO` (centres undefined) has a melting point of 241 to 242 °C. `CNC(=O)[C@@H]1CCCN1S(=O)(=O)c1ccc(Cl)c(COc2cccc3c2NC(C)(C)C=C3n2cncn2)c1Cl` gave a melting point of 131 °C. `Cc1cccc(OS(=O)(=O)c2ccc(N3CCCNC3=O)cc2)c1` showed a melting point of 145 to 147 °C. Work on `c1cc(CNc2nccc3ccccc23)cc(Nc2nnc3c4c(cccc24)-c2ccccc2-3)c1` yielded a melting point of 149 to 152 °C. In the case of `COC(=O)Nc1cc(Cl)nc(NC(=O)OC)n1`, the melting point is reported as 156 to 158 °C. Compound `CC1(c2ccc(I)cc2)CO1` (centres undefined) has a melting point of 44 to 45 °C. For `CC(C)n1nc(-c2nc(C(N)=O)c(N)nc2Cl)ccc1=O`, the melting point was > 250 °C. Compound `CC(=O)OCC1OC(c2ccc(F)c(Cc3ccc(Br)s3)c2)C(OC(C)=O)C(OC(C)=O)C1OC(C)=O` (centres undefined) has a melting point of 127 to 129 °C. In the case of `COc1ccc(NC(=O)Nc2c(Cl)cncc2Cl)cc1OC1CCCC1`, the melting point is reported as 183 to 184 °C. For `COC(=O)c1ncn(Cc2ccc([N+](=O)[O-])cc2)n1`, the melting point was 175 to 177 °C. Work on `CC(C)S(=O)(=O)c1ccc2c(c1)nc(CC1CC1)n2CC1CC1` yielded a melting point of 107 °C. `CCOC(=O)c1nc(-c2c(Cl)cc(C(F)(F)F)cc2Cl)[nH]c1C#N` showed a melting point of 180 to 181 °C.
